From patent US10273248B2, “Glucose uptake inhibitors” (Kadmon Corporation LLC, priority 2015, dated 2019)
Where a name gives a salt, the structure may show the parent alone.

Test system: glycolysis in HT1080 cells
Test: Glycolysis assay: oligomycin plus compound, cellular ATP by Cell Titer Glo
Format: cell-based
Conditions: Homo sapiens, HT-1080, 1 h, 10 μM oligomycin, one hour
Method in brief: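 Confluent HT1080 cells treated 1 h with compound plus 10 μM oligomycin to block mitochondrial ATP, so remaining ATP reflects glycolysis. Cellular ATP read by Cell Titer-Glo luminescence; IC50 derived from dose-response curves.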

| IC50 (class symbols) [nM] | IC50 (number printed instead of class) [nM] | Structure (SMILES) |
| --- | --- | --- |
| 101 to 250 |  | CCN1CCc2nc(-c3cccc(OCC(=O)NC4CCCC4)c3)nc(Nc3ccc(-c4cn[nH]c4)cc3)c2C1 [Example 125, 2-(3-(4-((4-(1H-pyrazol-4-yl)phenyl)amino)-6-ethyl-5,6,7,8-tetrahydropyrido[4,3-d]pyrimidin-2-yl)phenoxy)-N-cyclopentylacetamide] |
| > 1000 |  | COCCOc1cccc(-c2nc3c(c(Nc4ccc(-c5cn[nH]c5)cc4)n2)COCC3)c1 [Example 127, N-(4-(1H-pyrazol-4-yl)phenyl)-2-(3-(2-methoxyethoxy)phenyl)-7,8-dihydro-5H-pyrano[4,3-d]pyrimidin-4-amine] |
| 10 to 100 |  | CCC(C)(C)NC(=O)COc1cccc(-c2nc3c(c(Nc4ccc(-c5cn[nH]c5)cc4)n2)CNCC3)c1 [Example 128, 2-(3-(4-((4-(1H-pyrazol-4-yl)phenyl)amino)-5,6,7,8-tetrahydropyrido[4,3-d]pyrimidin-2-yl)phenoxy)-N-(tert-pentyl)acetamide] |
| 10 to 100 |  | CCN1CCc2nc(-c3cccc(OCC(=O)NC(C)(C)CC)c3)nc(Nc3ccc(-c4cn[nH]c4)cc3)c2C1 [Example 130, 2-(3-(4-((4-(1H-pyrazol-4-yl)phenyl)amino)-6-ethyl-5,6,7,8-tetrahydropyrido[4,3-d]pyrimidin-2-yl)phenoxy)-N-(tert-pentyl)acetamide] |
| 101 to 250 |  | CCC(C)(C)NC(=O)COc1cccc(-c2nc3c(c(Nc4ccc(-c5cn[nH]c5)cc4)n2)CN(C(C)C)CC3)c1 [Example 131, 2-(3-(4-((4-(1H-pyrazol-4-yl)phenyl)amino)-6-isopropyl-5,6,7,8-tetrahydropyrido[4,3-d]pyrimidin-2-yl)phenoxy)-N-(tert-pentyl)acetamide] |
| 10 to 100 |  | CCC(=O)N1CCc2nc(-c3cccc(OCC(=O)NC(C)(C)CC)c3)nc(Nc3ccc(-c4cn[nH]c4)cc3)c2C1 [Example 132, 2-(3-(4-((4-(1H-pyrazol-4-yl)phenyl)amino)-6-propionyl-5,6,7,8-tetrahydropyrido[4,3-d]pyrimidin-2-yl)phenoxy)-N-(tert-pentyl)acetamide] |
| 10 to 100 |  | CC(C)NC(=O)COc1cccc(-c2nc(Nc3ccc(-c4cn[nH]c4)cc3)c3cnccc3n2)c1 [Example 134, 2-(3-(4-((4-(1H-pyrazol-4-yl)phenyl)amino)pyrido[4,3-d]pyrimidin-2-yl)phenoxy)-N-isopropylacetamide] |
| 10 to 100 |  | CC(C)(C)NC(=O)COc1cccc(-c2nc(Nc3ccc(-c4cn[nH]c4)cc3)c3cnccc3n2)c1 [Example 135, 2-(3-(4-((4-(1H-pyrazol-4-yl)phenyl)amino)pyrido[4,3-d]pyrimidin-2-yl)phenoxy)-N-(tert-butyl)acetamide] |
| 10 to 100 |  | CC(C)(C)NC(=O)COc1cccc(-c2nc(Nc3ccc(-c4cn[nH]c4)cc3)c3ccncc3n2)c1 [Example 136, 2-(3-(4-((4-(1H-pyrazol-4-yl)phenyl)amino)pyrido[3,4-d]pyrimidin-2-yl)phenoxy)-N-(tert-butyl)acetamide] |
| 10 to 100 |  | CCC(CC)NC(=O)COc1cccc(-c2nc(Nc3ccc(-c4cn[nH]c4)cc3)c3ccncc3n2)c1 [Example 137, 2-(3-(4-((4-(1H-pyrazol-4-yl)phenyl)amino)pyrido[3,4-d]pyrimidin-2-yl)phenoxy)-N-(pentan-3-yl)acetamide dihydrochloride] |
| 10 to 100 |  | O=C(COc1cccc(-c2nc(Nc3ccc(-c4cn[nH]c4)cc3)c3ccncc3n2)c1)NC1CCCCC1 [Example 138, 2-(3-(4-((4-(1H-pyrazol-4-yl)phenyl)amino)pyrido[3,4-d]pyrimidin-2-yl)phenoxy)-N-cyclohexylacetamide dihydrochloride] |
| > 1000 |  | NC(=O)COc1cccc(-c2nc(Nc3ccc(-c4cn[nH]c4)cc3)c3sccc3n2)c1 [Example 139, 2-(3-(4-((4-(1H-pyrazol-4-yl)phenyl)amino)thieno[3,2-d]pyrimidin-2-yl)phenoxy)acetamide] |
| 101 to 250 |  | CC(=O)N1Cc2nc(-c3cccc(OCC(=O)NC(C)C)c3)nc(Nc3ccc(-c4cn[nH]c4)cc3)c2C1 [Example 140, 2-(3-(4-((4-(1H-pyrazol-4-yl)phenyl)amino)-6-acetyl-6,7-dihydro-5H-pyrrolo[3,4-d]pyrimidin-2-yl)phenoxy)-N-isopropylacetamide] |
| 10 to 100 |  | CCC(CC)NC(=O)COc1cccc(-c2nc3c(c(Nc4ccc(-c5cn[nH]c5)cc4)n2)CN(C(C)=O)C3)c1 [Example 141, 2-(3-(4-((4-(1H-pyrazol-4-yl)phenyl)amino)-6-acetyl-6,7-dihydro-5H-pyrrolo[3,4-d]pyrimidin-2-yl)phenoxy)-N-(pentan-3-yl)acetamide] |
| 10 to 100 |  | CC(=O)N1Cc2nc(-c3cccc(OCC(=O)NC(C)(C)C)c3)nc(Nc3ccc(-c4cn[nH]c4)cc3)c2C1 [Example 142, 2-(3-(4-((4-(1H-pyrazol-4-yl)phenyl)amino)-6-acetyl-6,7-dihydro-5H-pyrrolo[3,4-d]pyrimidin-2-yl)phenoxy)-N-(tert-butyl)acetamide] |
| 10 to 100 |  | CC(=O)N1Cc2nc(-c3cccc(OCC(=O)NC4CCCC4)c3)nc(Nc3ccc(-c4cn[nH]c4)cc3)c2C1 [Example 143, 2-(3-(4-((4-(1H-pyrazol-4-yl)phenyl)amino)-6-acetyl-6,7-dihydro-5H-pyrrolo[3,4-d]pyrimidin-2-yl)phenoxy)-N-cyclopentylacetamide] |
| 10 to 100 |  | CC(=O)N1CCc2nc(-c3cccc(OCC(=O)NC4CCCC4)c3)nc(Nc3ccc(-c4cn[nH]c4)cc3)c2C1 [Example 145, 2-(3-(4-((4-(1H-pyrazol-4-yl)phenyl)amino)-6-acetyl-5,6,7,8-tetrahydropyrido[4,3-d]pyrimidin-2-yl)phenoxy)-N-cyclopentylacetamide] |
| 10 to 100 |  | CC(=O)N1CCc2nc(-c3cccc(OCC(=O)NCC(C)C)c3)nc(Nc3ccc(-c4cn[nH]c4)cc3)c2C1 [Example 146, 2-(3-(4-((4-(1H-pyrazol-4-yl)phenyl)amino)-6-acetyl-5,6,7,8-tetrahydropyrido[4,3-d]pyrimidin-2-yl)phenoxy)-N-isobutylacetamide] |
| 10 to 100 |  | CC(=O)N1CCc2nc(-c3cccc(OCC(=O)NCC(C)(C)C)c3)nc(Nc3ccc(-c4cn[nH]c4)cc3)c2C1 [Example 147, 2-(3-(4-((4-(1H-pyrazol-4-yl)phenyl)amino)-6-acetyl-5,6,7,8-tetrahydropyrido[4,3-d]pyrimidin-2-yl)phenoxy)-N-neopentylacetamide] |
| 10 to 100 |  | CCC(C)(C)NC(=O)COc1cccc(-c2nc3c(c(Nc4ccc(-c5cn[nH]c5)cc4)n2)CN(C(C)=O)CC3)c1 [Example 148, 2-(3-(4-((4-(1H-pyrazol-4-yl)phenyl)amino)-6-acetyl-5,6,7,8-tetrahydropyrido[4,3-d]pyrimidin-2-yl)phenoxy)-N-(tert-pentyl)acetamide] |
| 10 to 100 |  | CC(C)NC(=O)COc1cccc(-c2nc3c(c(Nc4ccc(-c5cn[nH]c5)cc4)n2)CN(C(=O)C(C)C)CC3)c1 [Example 149, 2-(3-(4-((4-(1H-pyrazol-4-yl)phenyl)amino)-6-isobutyryl-5,6,7,8-tetrahydropyrido[4,3-d]pyrimidin-2-yl)phenoxy)-N-isopropylacetamide] |
|  | 28 | CC(C)C(=O)N1CCc2nc(-c3cccc(OCC(=O)NC4CCCC4)c3)nc(Nc3ccc(-c4cn[nH]c4)cc3)c2C1 [Example 150, 2-(3-(4-((4-(1H-pyrazol-4-yl)phenyl)amino)-6-isobutyryl-5,6,7,8-tetrahydropyrido[4,3-d]pyrimidin-2-yl)phenoxy)-N-cyclopentylacetamide] |
